This note sets out measurements from BindingDB's records for doi:10.1016/j.jmb.2004.09.032 (Celera, 2004).

Where “and” joins values, the source holds several entries; their conditions need not be identical. Equal values may be shown once.

Some targets named below: Coagulation factor X (Homo sapiens, UniProt P00742); Prothrombin (Homo sapiens, UniProt P00734); Serine protease hepsin (Homo sapiens, UniProt P05981); Tryptase beta-2 (Homo sapiens, UniProt P20231).
What all share (assay): Enzyme Assay and Determination of the Inhibition Constants
For a further assay, the target named is Plasminogen (Homo sapiens, UniProt P00747). To be noted: pH 7.4; 22 °C.
A further assay has as its target Serine protease 1 (Homo sapiens, UniProt P07477). To be noted: pH 7.4; 22 °C.
Assay [1] addresses Urokinase-type plasminogen activator (Homo sapiens, UniProt P00749).
In assay [2] the target is T1, Urokinase-type plasminogen activator [179-431,I214M,N322A,S371A] (Homo sapiens, UniProt P00749, I214M/N322A/S371A).
T1 construct: 179-431

Assay [3] addresses Tissue-type plasminogen activator (Homo sapiens, UniProt P00750).

Plasminogen, sequence (P00747 97-580 limits assumed): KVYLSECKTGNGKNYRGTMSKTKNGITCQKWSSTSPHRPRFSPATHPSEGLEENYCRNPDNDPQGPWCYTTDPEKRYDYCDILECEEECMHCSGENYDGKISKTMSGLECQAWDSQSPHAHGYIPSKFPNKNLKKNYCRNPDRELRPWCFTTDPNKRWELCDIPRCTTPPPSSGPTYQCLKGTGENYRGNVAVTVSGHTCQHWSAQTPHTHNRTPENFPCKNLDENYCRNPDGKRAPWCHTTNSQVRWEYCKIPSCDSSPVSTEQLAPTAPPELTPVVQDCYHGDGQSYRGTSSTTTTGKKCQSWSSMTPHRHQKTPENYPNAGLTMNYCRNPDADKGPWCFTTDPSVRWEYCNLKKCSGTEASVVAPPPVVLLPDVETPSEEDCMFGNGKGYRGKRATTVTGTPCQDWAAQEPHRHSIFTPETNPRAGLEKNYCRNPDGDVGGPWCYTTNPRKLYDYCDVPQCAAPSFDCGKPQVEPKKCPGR
Plasminogen, sequence (P00747 581-810 limits assumed): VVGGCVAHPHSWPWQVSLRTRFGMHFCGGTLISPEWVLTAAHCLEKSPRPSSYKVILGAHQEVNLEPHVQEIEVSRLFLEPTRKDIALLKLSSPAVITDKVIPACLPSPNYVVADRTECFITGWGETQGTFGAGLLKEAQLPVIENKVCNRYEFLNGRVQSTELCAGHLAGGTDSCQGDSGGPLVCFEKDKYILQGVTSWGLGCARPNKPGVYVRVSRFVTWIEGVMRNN
Serine protease hepsin, sequence (P05981 1-162 limits assumed): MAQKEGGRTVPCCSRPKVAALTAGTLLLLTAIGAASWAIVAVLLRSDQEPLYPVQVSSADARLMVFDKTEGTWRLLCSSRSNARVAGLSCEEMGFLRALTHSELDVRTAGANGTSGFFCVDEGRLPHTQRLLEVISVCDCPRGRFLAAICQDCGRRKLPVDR
Serine protease hepsin, sequence (P05981 163-417 limits assumed): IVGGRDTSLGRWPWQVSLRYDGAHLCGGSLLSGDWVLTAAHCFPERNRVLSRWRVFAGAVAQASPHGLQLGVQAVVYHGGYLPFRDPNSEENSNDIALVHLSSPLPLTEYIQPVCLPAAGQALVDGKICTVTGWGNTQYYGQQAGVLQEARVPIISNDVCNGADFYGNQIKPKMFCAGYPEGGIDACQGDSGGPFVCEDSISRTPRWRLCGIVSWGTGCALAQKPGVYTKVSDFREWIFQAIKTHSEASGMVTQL
Tryptase beta-2, sequence (P20231 as listed by the source): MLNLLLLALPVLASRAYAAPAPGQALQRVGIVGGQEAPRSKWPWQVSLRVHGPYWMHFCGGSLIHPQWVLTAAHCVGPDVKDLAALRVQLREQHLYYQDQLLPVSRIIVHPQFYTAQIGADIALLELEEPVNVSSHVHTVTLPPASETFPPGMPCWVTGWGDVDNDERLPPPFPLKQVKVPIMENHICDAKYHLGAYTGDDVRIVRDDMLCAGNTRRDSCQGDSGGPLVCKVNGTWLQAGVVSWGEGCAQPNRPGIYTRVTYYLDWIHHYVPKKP
Tissue-type plasminogen activator, sequence (P00750 whole entry): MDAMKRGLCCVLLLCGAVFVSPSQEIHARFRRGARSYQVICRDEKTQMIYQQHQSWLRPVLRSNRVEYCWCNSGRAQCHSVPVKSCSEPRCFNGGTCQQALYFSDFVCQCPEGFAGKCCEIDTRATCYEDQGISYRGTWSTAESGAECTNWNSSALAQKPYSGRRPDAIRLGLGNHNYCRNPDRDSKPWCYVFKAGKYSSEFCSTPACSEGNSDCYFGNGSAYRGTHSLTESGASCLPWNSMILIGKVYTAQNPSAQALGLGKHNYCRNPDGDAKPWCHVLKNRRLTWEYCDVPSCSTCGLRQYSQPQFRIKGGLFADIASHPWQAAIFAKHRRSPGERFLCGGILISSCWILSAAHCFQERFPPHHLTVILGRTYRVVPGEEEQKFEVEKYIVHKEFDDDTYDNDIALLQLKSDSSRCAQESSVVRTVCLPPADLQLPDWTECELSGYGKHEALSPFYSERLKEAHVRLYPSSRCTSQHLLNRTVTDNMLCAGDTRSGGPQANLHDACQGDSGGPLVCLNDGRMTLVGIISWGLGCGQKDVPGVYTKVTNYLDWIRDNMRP
Serine protease 1, sequence (P07477 whole entry): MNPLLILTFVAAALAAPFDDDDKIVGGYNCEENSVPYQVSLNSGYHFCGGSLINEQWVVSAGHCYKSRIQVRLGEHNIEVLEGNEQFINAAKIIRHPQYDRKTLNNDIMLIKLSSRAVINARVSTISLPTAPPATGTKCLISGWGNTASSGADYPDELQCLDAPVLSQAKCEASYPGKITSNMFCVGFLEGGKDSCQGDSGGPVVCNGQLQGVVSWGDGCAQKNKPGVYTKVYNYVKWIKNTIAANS
Coagulation factor X, sequence (P00742 41-179 limits assumed): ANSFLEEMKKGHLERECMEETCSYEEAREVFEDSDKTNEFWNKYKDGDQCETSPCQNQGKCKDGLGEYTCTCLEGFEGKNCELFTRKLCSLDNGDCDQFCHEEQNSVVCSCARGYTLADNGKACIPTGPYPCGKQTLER
Coagulation factor X, sequence (P00742 235-488 limits assumed): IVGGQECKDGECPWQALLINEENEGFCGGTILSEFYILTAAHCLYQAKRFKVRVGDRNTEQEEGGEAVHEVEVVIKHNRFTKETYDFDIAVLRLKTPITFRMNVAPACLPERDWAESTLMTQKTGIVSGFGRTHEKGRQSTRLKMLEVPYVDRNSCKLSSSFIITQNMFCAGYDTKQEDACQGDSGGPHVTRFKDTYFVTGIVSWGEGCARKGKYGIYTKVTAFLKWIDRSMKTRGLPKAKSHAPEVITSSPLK

`NC(N)=Nc1ccc(NC(=O)c2cc3ccccc3c(O)c2O)cn1` [[amino({5-[(3,4-dihydroxynaphthalene-2-)amido]pyridin-2-yl}amino)methylidene]azanium]: the Ki – broadly, the equilibrium dissociation constant of an inhibitor or competing ligand from its target – was 80 µM at Coagulation factor X; 4 µM at Plasminogen; above 450 µM on Prothrombin; 42 µM on Serine protease 1; 17 nM and 41 nM in assay [1]; 0.28 µM in [2].
Turning to `Nc1nc2cc(NC(=O)c3cc4ccccc4cc3O)ccc2[nH]1` [2-amino-5-[(3-hydroxynaphthalene-2-)amido]-1H-1,3-benzodiazol-3-ium], the Ki was 200 µM at Coagulation factor X; above 75 µM on Plasminogen; above 450 µM on Prothrombin; 37 µM on Serine protease 1; 2100 nM on Serine protease hepsin; above 450 µM in assay [3]. Besides, the Ki in assay [1] is 4600 nM and 4500 nM; in assay [2], 42 µM.
Take `C[C@H]1CCCC[C@@H]1Oc1cccc(-c2nc3cc(C(=N)N)c(F)cc3[nH]2)c1O` [2-{5-[amino(iminiumyl)methyl]-6-fluoro-1H-1,3-benzodiazol-2-yl}-6-{[(1S,2S)-2-methylcyclohexyl]oxy}benzen-1-olate]: the Ki at Tryptase beta-2 is 2500 nM.
As to `CC(C)COc1cccc(-c2nc3ccc(C(=N)N)cc3[nH]2)c1O` [2-{5-[amino(iminiumyl)methyl]-1H-1,3-benzodiazol-2-yl}-6-(2-methylpropoxy)benzen-1-olate], the values for the Ki in assay [1] and in assay [2] were 190 nM and 3.9 µM, respectively.
As to `N=C(N)c1ccc2nc(-c3cccc(OC4CCCC4)c3O)[nH]c2c1` [CA-06], the Ki is 190 nM in [1] and 4.4 µM in assay [2].
On to `N=C(N)c1ccc2[nH]c(-c3cccc(-c4ccccc4)c3O)cc2c1` [CRA-8696], for which the Ki is 85 nM at Serine protease hepsin and 33 nM in assay [1].
As for `NC(N)=Nc1ccc(NC(=O)c2cc3ccccc3cc2O)cc1` [[amino({4-[(3-hydroxynaphthalene-2-)amido]phenyl}amino)methylidene]azanium], the Ki on Coagulation factor X was above 450 µM; at Plasminogen, 130 µM; at Prothrombin, 290 µM; on Serine protease 1, 16 µM; at Serine protease hepsin, 2600 nM; in assay [3], 670 µM. For the same molecule, the Ki at Tryptase beta-2 is 2000 nM; in assay [1], 620 nM and 390 nM; in [2], 10 µM.
Consider `N=C(N)Nc1ccc(NC(=O)c2cc3ccccc3cc2O)cn1` [[amino({5-[(3-hydroxynaphthalene-2-)amido]pyridin-2-yl}amino)methylidene]azanium], for which the Ki at Coagulation factor X turned out to be 70 µM; at Plasminogen it was 130 µM; on Prothrombin, 54 µM; on Serine protease 1 it was 9.6 µM; in [3], 180 µM; at Tryptase beta-2, 870 nM. For the same molecule, the Ki was 100 nM and 200 nM in [1]; 1.1 µM in [2].
As for `Nc1nc2cc(NC(=O)c3cccc(-c4ccccc4)c3O)ccc2[nH]1` [2-amino-5-[(2-hydroxy-3-phenylbenzene)amido]-1H-1,3-benzodiazol-3-ium], the Ki on Coagulation factor X was above 450 µM; on Plasminogen, above 75 µM; at Prothrombin, above 450 µM; at Serine protease 1, 130 µM; at Serine protease hepsin it was above 75000 nM; in [3] it was 270 µM. Besides, in assay [1], the Ki came to 4100 nM.
With `N=C(N)c1cc2nc(-c3cccc(-c4ccccc4)c3O)[nH]c2cc1F` [2-{5-[amino(iminiumyl)methyl]-6-fluoro-1H-1,3-benzodiazol-2-yl}-6-phenylbenzen-1-olate], the Ki stood at 10 µM on Serine protease 1, 4700 nM on Tryptase beta-2, 370 nM in assay [1] and 39 µM in [2].
`CC(C)COc1cccc(-c2nc3cc(F)c(C(=N)N)cc3[nH]2)c1O` [CA-10]: the values for the Ki in assay [1] and in assay [2] were 150 nM and 23 µM, respectively.
